From PubChem BioAssay (NCI)
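All cell lines were grown in 96-well plates and treated with compound for 48 hours. GI50 = concentration required for 50% inhibition of growth. TGI denotes the concentration required for complete inhibition of growth.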

Columns and labels:
Assay in all cases: DTP human tumour cell line panel, 48 h
[1] = tested on: PC-3 prostate
[2] = tested on: SR leukemia
[3] = tested on: T-47D breast
[4] = tested on: COLO 205 colon
[5] = tested on: SN12C renal
[6] = tested on: NCI/ADR-RES ovarian
[7] = tested on: SK-MEL-2 melanoma
[8] = tested on: SK-MEL-5 melanoma
[9] = tested on: BT-549 breast

SMILES | TGI [1] | TGI [2] | TGI [3] | TGI [4] | TGI [5] | TGI [6] | TGI [7] | TGI [8] | TGI [9] | GI50 [1] | GI50 [2] | GI50 [3] | GI50 [4] | GI50 [5] | GI50 [6] | GI50 [7] | GI50 [8]
Cc1c(O)nc(-n2[nH]c3c(c2=O)CCCC3)[nH]c1=O | > 100 µM | > 100 µM | > 100 µM | > 100 µM | > 100 µM | > 100 µM | > 100 µM | > 100 µM | > 100 µM | – | – | – | – | – | – | – | –
C=C(C(=O)OCC)C(=O)OCC | > 100 µM | > 100 µM | > 100 µM | > 100 µM | > 100 µM | – | > 100 µM | > 100 µM | > 100 µM | – | – | – | – | – | – | – | –
Cc1ccc(C2=CC(=O)OC(C[P+](c3ccccc3)(c3ccccc3)c3ccccc3)(c3ccccc3)O2)cc1 (stereo not drawn) | 49 µM | 61.2 µM | 41.1 µM | 28.3 µM | 57.7 µM | 40.2 µM | 29.2 µM | 29.8 µM | 49.2 µM | – | – | – | – | – | – | – | –
S=c1c2cn[nH]c2nc2scc(-c3ccc(Cl)cc3)n12 | 29.8 µM | 28.9 µM | – | 65.3 µM | 32 µM | 31.2 µM | 46.6 µM | > 100 µM | 27.5 µM | – | – | – | – | – | – | – | –
CC(NC(=O)Cc1ccccc1)NC(=O)C(C)C(=O)Nc1ccccc1 (stereo not drawn) | > 100 µM | > 100 µM | > 100 µM | > 100 µM | > 100 µM | > 100 µM | > 100 µM | > 100 µM | > 100 µM | – | – | – | – | – | – | – | –
Cc1c(/C=N\NC(=S)NCCNC(=S)N/N=C\c2c(C)n(C)n(-c3ccccc3)c2=O)c(=O)n(-c2ccccc2)n1C | > 100 µM | > 100 µM | > 100 µM | > 100 µM | – | > 100 µM | > 100 µM | > 100 µM | > 100 µM | – | – | – | – | – | – | – | –
C=C1C(=O)CC2C1CC(=O)/C(C)=C/CCC(C)(O)C2O (stereo not drawn) | 23.3 µM | > 37.6 µM | 3.96 µM | 7.49 µM | 5.32 µM | 28.3 µM | 22.9 µM | 17.6 µM | – | – | – | – | – | – | – | – | –
COc1ccc(C2c3cn[nH]c3CC3CCCCC32)cc1 (stereo not drawn) | 29.8 µM | 57.1 µM | 19 µM | – | 33.2 µM | – | 32.5 µM | 29.1 µM | 33.5 µM | – | – | – | – | – | – | – | –
COC(=O)C(Cc1ccc2c(c1)CCC2)Cc1ccc2c(c1)CCC2 | > 100 µM | > 100 µM | > 100 µM | > 100 µM | > 100 µM | > 100 µM | > 100 µM | > 100 µM | > 100 µM | – | – | – | – | – | – | – | –
COc1ccc(N2C(=O)CC(=O)N(NC(=O)C(C)Oc3ccccc3C)C2=S)cc1 (stereo not drawn) | > 100 µM | > 100 µM | > 100 µM | > 100 µM | > 100 µM | > 100 µM | > 100 µM | > 100 µM | > 100 µM | – | – | – | – | – | – | – | –
C/C(C[n+]1ccccc1)=N\N=C(N)N | > 100 µM | – | > 100 µM | > 100 µM | > 100 µM | > 100 µM | > 100 µM | > 100 µM | > 100 µM | – | – | – | – | – | – | – | –
CC(=O)NC1C(OCc2ccccc2)OC(CO)C(O)C1OCC(=O)N[C@@H](C)C(=O)N[C@H](CCC(=O)NCCCNc1c2ccccc2nc2cccc([N+](=O)[O-])c12)C(N)=O (stereo partly drawn) | 0.493 µM | 46.7 µM | 0.25 µM | 0.0185 µM | 0.327 µM | – | – | 0.0383 µM | 0.287 µM | – | – | – | – | – | – | – | –
C[C@H](CCC(=O)O)[C@H]1CC[C@H]2[C@@H]3C(=O)C[C@@H]4C[C@H](O)CC[C@]4(C)[C@H]3C[C@H](O)[C@]12C | > 100 µM | > 100 µM | > 100 µM | > 100 µM | > 100 µM | > 100 µM | > 100 µM | – | > 100 µM | – | – | – | – | – | – | – | –
CN1CCOC1c1ccccc1O (stereo not drawn) | > 100 µM | > 100 µM | > 100 µM | > 100 µM | – | > 100 µM | > 100 µM | > 100 µM | > 100 µM | – | – | – | – | – | – | – | –
C=C1CC(C#N)(C#N)[C@H]2C3CCCC3C[C@@H]12 (stereo partly drawn) (tested in a mixture with another compound) | 97.4 µM | 53.6 µM | > 100 µM | – | 30.5 µM | 48.2 µM | – | > 100 µM | 56.8 µM | – | – | – | – | – | – | – | –
CC(C)c1cc2c(c(O)c1O)[C@@]1(C(=O)O)CCCC(C)(C)[C@@H]1CC2 | 33.9 µM | 33.7 µM | 55 µM | > 100 µM | 64.8 µM | 31.3 µM | 41.6 µM | 47.2 µM | 28.7 µM | – | – | – | – | – | – | – | –
Cc1nc(C)c(C(=O)NNC(=O)C[N+](C)(C)C)cc1C(=O)NNC(=O)C[N+](C)(C)C | – | – | > 100 µM | > 100 µM | > 100 µM | > 100 µM | > 100 µM | > 100 µM | > 100 µM | – | – | – | – | – | – | – | –
COc1ccc(C2OC(c3ccncc3)=NN2C)cc1F (stereo not drawn) | > 100 µM | – | > 100 µM | > 100 µM | > 100 µM | > 100 µM | > 100 µM | > 100 µM | – | – | – | – | – | – | – | – | –
N[C@@H](Cc1ccccc1)C(=O)N1CCC[C@@H]1P(=O)(Oc1ccccc1)Oc1ccccc1 | > 100 µM | – | > 100 µM | > 100 µM | > 100 µM | > 100 µM | > 100 µM | > 100 µM | > 100 µM | – | – | – | – | – | – | – | –
C[n+]1c(/C=C/c2c(O)ccc3ccccc23)ccc2ccccc21 | 11.7 µM | 3.31 µM | 14.7 µM | 10.8 µM | 13.6 µM | 14.5 µM | 13.3 µM | 10.7 µM | – | 4 µM | 1.21 µM | 4.32 µM | 4.07 µM | 6.08 µM | 5.64 µM | 5.91 µM | 4.82 µM
CC(C)(C)[Si](C)(C)OCC1OC(n2ccc(=O)[nH]c2=O)C(O[Si](C)(C)C(C)(C)C)/C1=C/C#N (stereo not drawn) | > 100 µM | > 100 µM | > 100 µM | 9.83 µM | 32.5 µM | > 42.3 µM | 42.4 µM | 11.9 µM | > 100 µM | – | – | – | – | – | – | – | –
BrC(=C(c1ccc(OC2CCCCO2)cc1)c1ccc(OC2CCCCO2)cc1)c1ccccc1 (stereo not drawn) | > 100 µM | > 100 µM | > 100 µM | > 100 µM | > 100 µM | > 100 µM | – | – | – | – | – | – | – | – | – | – | –
O=C(CCn1ccnc1[N+](=O)[O-])NCCCn1ccnc1[N+](=O)[O-] | > 100 µM | > 100 µM | > 100 µM | > 100 µM | > 100 µM | > 100 µM | > 100 µM | > 100 µM | > 100 µM | – | – | – | – | – | – | – | –
